The text below walks through data of article PMC4527756 (Bioorganic & medicinal chemistry, 2015).

For experiment [1], the target named is α4β2* nAChR (Rattus norvegicus, UniProt P09483+P12390). As to the kind of experiment: radioligand binding assay, α4β2* nAChR. Also noted: species or system Sprague-Dawley rat. The settings on record: for Measured activity scale: class of measured α4β2* Ki; for affinity for nAChR subtypes (in words): α4β2* and other nAChR subtypes tested.
Experiment [2] addresses (α1)2β1γδ ("muscle type") nAChR (Tetronarce californica, UniProt P02710+P02714+P02718). As to the kind of experiment: radioligand binding assay, muscle type nAChR. Also noted: species or system Torpedo californica.
For the next experiment, the target named is α3β4* nAChR (Sus scrofa, UniProt A0A287A7Z4+O18764). The experiment is described as follows: radioligand binding assay, α3β4* nAChR. Also on record: species or system pig.
Another experiment has as its target α7* nAChR (Rattus norvegicus, UniProt Q05941). The experiment is described as follows: radioligand binding assay, α7* nAChR. Also noted: species or system Sprague-Dawley rat.
A further experiment deals with α7 nAChR. The settings on record: read-out: α7 nAChR IC50; selective α7 nAChR agonist; cited from earlier work.
The test system of experiment [3] is α4β2* nAChR. The settings on record: [3H]cytisine, cited from earlier work; for Ki: read-out: α4β2* Ki.
The next experiment concerns mouse tail-flick test. The settings on record: cited from earlier work.
For experiment [4], the target named is α4β2* nAChR. The settings on record: read-out: α4β2* Ki; cited from earlier work.
The test system of a further experiment is α4β2* nAChRs. The settings on record: cited from earlier work.
Experiment [5] concerns mouse tail suspension test. The settings on record: cited from earlier work.

Like-named read-outs stand apart in the source and are kept apart here. Bounds are passed on as bounds.

(α1)2β1γδ ("muscle type") nAChR, sequence (P02718 22-522): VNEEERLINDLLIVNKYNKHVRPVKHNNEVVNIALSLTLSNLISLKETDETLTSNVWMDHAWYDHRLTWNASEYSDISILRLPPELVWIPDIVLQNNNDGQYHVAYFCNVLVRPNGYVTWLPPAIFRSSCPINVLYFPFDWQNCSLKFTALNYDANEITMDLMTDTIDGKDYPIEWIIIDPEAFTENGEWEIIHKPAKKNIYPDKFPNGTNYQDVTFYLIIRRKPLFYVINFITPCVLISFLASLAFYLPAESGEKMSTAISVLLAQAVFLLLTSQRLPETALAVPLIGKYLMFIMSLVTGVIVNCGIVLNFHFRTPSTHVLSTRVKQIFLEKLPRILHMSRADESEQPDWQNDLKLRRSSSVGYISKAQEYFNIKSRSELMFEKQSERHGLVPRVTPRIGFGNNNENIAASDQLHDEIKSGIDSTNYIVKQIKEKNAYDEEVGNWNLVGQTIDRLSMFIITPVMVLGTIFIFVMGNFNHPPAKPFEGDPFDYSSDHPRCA
(α1)2β1γδ ("muscle type") nAChR, sequence (P02714 18-506): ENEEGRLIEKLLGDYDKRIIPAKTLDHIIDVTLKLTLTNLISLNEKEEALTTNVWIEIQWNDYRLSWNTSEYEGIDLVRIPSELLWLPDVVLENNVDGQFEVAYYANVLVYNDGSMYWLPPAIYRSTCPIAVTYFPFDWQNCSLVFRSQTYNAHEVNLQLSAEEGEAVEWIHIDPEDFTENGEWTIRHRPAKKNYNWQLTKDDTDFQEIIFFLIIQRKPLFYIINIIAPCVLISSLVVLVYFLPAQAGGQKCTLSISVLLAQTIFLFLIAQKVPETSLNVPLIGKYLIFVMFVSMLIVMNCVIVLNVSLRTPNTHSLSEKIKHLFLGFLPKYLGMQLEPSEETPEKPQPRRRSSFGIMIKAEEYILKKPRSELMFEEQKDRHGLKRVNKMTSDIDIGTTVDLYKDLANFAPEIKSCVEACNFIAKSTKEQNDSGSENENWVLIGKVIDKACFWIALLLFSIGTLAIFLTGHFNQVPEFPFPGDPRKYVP
(α1)2β1γδ ("muscle type") nAChR, sequence (P02710 25-461): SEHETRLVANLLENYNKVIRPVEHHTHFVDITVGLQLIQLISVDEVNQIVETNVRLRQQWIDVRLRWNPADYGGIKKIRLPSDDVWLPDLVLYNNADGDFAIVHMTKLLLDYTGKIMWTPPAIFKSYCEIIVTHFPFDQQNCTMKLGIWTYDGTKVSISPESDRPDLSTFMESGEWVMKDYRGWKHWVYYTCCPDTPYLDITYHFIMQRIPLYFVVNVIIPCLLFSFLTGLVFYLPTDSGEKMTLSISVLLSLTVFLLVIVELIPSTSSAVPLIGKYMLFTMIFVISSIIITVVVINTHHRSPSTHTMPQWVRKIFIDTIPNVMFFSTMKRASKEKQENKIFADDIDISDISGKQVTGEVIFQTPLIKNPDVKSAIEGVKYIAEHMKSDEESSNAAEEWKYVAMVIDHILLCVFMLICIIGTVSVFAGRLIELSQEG
(α1)2β1γδ ("muscle type") nAChR, sequence (P02712 25-493, further chain): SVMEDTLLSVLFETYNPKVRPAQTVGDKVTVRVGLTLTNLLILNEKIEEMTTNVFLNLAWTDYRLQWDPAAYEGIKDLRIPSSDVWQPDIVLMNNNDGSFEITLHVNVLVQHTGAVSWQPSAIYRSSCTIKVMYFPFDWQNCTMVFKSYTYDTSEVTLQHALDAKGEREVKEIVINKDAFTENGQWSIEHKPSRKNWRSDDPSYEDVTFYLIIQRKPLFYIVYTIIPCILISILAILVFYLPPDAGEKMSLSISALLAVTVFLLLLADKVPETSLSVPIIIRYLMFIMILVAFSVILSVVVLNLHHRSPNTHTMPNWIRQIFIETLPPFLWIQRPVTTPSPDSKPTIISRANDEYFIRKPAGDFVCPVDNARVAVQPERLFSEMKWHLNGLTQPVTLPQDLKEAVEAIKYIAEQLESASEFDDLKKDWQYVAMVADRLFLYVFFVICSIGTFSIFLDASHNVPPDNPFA
α4β2* nAChR (Rattus norvegicus, UniProt P09483+P12390), sequence (P09483 31-630): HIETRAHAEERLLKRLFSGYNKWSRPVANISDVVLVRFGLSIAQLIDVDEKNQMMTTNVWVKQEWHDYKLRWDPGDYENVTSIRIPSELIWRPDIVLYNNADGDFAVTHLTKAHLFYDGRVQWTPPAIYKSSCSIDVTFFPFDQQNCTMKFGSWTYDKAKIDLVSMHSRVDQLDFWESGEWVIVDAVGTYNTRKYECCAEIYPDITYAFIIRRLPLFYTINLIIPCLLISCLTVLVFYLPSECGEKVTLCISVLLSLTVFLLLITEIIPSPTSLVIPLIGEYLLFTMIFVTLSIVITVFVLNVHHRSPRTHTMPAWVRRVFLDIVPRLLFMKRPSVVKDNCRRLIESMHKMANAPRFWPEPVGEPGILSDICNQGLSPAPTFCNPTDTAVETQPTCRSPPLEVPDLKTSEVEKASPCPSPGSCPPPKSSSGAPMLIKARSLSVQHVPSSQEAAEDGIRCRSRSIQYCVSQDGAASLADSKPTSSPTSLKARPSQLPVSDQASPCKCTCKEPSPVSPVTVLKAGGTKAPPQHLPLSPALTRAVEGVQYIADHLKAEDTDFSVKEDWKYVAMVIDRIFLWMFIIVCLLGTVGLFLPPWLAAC
α4β2* nAChR (Rattus norvegicus, UniProt P09483+P12390), sequence (P12390 25-500): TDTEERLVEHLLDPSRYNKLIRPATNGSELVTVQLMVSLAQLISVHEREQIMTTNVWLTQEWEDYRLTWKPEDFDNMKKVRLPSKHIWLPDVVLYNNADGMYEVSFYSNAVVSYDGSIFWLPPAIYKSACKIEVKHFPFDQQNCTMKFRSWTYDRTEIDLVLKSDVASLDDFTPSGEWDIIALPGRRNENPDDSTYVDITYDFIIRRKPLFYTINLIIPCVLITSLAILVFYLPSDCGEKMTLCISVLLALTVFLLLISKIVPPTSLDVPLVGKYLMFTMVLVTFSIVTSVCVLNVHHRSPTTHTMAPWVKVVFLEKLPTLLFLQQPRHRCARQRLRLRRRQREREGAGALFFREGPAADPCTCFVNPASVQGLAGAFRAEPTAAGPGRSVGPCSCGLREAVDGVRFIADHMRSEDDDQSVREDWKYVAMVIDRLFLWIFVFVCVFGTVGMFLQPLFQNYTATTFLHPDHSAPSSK
α7* nAChR, sequence (Q05941 23-502): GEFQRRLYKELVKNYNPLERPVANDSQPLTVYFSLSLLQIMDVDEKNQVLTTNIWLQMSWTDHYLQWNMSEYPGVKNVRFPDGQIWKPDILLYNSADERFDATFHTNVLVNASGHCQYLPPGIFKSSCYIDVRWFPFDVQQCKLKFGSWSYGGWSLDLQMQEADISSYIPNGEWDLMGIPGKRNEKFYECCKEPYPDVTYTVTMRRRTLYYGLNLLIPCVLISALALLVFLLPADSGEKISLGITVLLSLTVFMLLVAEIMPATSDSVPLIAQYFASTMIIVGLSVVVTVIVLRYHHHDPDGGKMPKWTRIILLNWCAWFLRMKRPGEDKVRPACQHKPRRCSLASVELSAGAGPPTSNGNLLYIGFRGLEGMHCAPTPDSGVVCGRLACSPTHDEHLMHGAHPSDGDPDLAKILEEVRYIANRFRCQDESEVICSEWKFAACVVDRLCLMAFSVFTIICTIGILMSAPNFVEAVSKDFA

On to `CN(C)CCOc1cncc(N2CCCNCC2)c1` [Compound 18a, 2-((5-(1,4-diazepan-1-yl)pyridin-3-yl)oxy)-N,N-dimethylethanamine], for which, at α4β2* nAChR [1], the Measured activity scale result is reported as “+++ (highly active +++, Ki < 150 nM)”. The Ki in experiment [2] is above 1 µM. In the case of `CN(C)CCOc1cncc(-c2cncc(OCCN(C)C)c2)c1` [Compound 10, 2,2′-([3,3′-bipyridine]-5,5′-diylbis(oxy))bis(N,N-dimethylethanamine)], the “fold decreased α4β2* affinity in comparison with single entity 9” value at α4β2* nAChR [1] (versus compound 9) is listed as “approximately nine-fold”. Moreover, the “interaction with α3β4* nAChR (in words)” value at α3β4* nAChR is given as “no interaction”. The “interaction with α7* nAChR (in words)” value at α7* nAChR is recorded as “no interaction”.

For `CCN(CC)CCOc1ccc2c(c1)C(=O)c1cc(OCCN(CC)CC)ccc1-2` [tilorone 8, tilorone], in the experiment on α7 nAChR, the IC50 is 0.11 µM. On to `CN1CCCN(c2cccnc2)CC1` [Compound 12b], for which the IC50 in the experiment with α4β2* nAChR [3] (read-out: α4β2* (IC50), printed as IC50 in Ki column) is 0.15 µM. For `CN(C)CCOc1cncc(N2CCCCC2)c1` [Compound 24, N,N-dimethyl-2-{[5-(piperidin-1-yl)pyridin-3-yl]oxy}ethanamine], on α4β2* nAChR [1], the Measured activity scale result was “+ (inactive +, Ki > 1,000 nM)” and the “affinity for nAChR subtypes (in words)” value is “complete loss of affinity”. Consider `CN(C)CCOc1cccnc1` [Compound 9, N,N-dimethyl-2-(pyridin-3-yloxy)ethan-1-amine], for which the Ki at α4β2* nAChR [3] (ref 23) is 0.0326 µM; on α4β2* nAChR [3] (ref 24) it was 0.024 µM. Further, the “In vivo activity ED50” value with mouse tail-flick test was “ED50 (mg/kg) = 15 (mouse tail-flick test) [24]”. `CN(C)CCOc1cc(F)cc(N2CC3CNCC(C3)C2)c1` [Compound 17b, 2-(3-(3,7-diazabicyclo[3.3.1]nonan-3-yl)-5-fluorophenoxy)-N,N-dimethylethanamine] showed an inhibitory constant (Ki) in [2] above 1 µM.

In experiment [2], `CN(C)CCOc1cc(N2CC3CNCC(C3)C2)cc(F)c1F` [Compound 17c, 2-(5-(3,7-diazabicyclo[3.3.1]nonan-3-yl)-2,3-difluorophenoxy)-N,N-dimethylethanamine] registered an inhibition constant Ki above 1 µM. Take `CN1CCN(c2cccnc2)CC1` [Compound 13b]: the Ki on α4β2* nAChR [3] (ref 26) is 0.09 µM. For `CN(C)CCOc1cncc(N2CCC2)c1` [Compound 22, 2-{[5-(azetidin-1-yl)pyridin-3-yl]oxy}-N,N-dimethylethanamine], the Measured activity scale entry on α4β2* nAChR [1] was “++ (moderately active ++, 150 nM < Ki < 1,000 nM)”. Besides, the “interaction with α7* nAChR (in words)” value at α7* nAChR is on record as “no activity”. With `CN(C)CCOc1cncc(N2CCN(C)CC2)c1` [Compound 21a, N,N-dimethyl-2-{[5-(4-methylpiperazin-1-yl)pyridin-3-yl]oxy}ethanamine], the Measured activity scale result at α4β2* nAChR [1] was “+++ (highly active +++, Ki < 150 nM)”. For the same molecule, the Ki in [2] was above 1 µM. Turning to `c1cncc(N2CCNCC2)c1` [Compound 13a], on α4β2* nAChR [3] (ref 26), the Ki is 0.09 µM. Regarding `CN(C)CCOc1cncc(N2CCCC2)c1` [Compound 23, N,N-dimethyl-2-{[5-(pyrrolidin-1-yl)pyridin-3-yl]oxy}ethanamine], at α4β2* nAChR [1], the Measured activity scale result was “+ (inactive +, Ki > 1,000 nM)” and the “affinity for nAChR subtypes (in words)” value is “complete loss of affinity”. On to `CN1[C@@H](CC(=O)c2ccccc2)CCC[C@H]1C[C@H](O)c1ccccc1` [Lobeline 1, lobeline], for which the Ki at α4β2* nAChR [4] is 0.004 to 0.03 µM. With `CN(C)CCOc1cncc(N2CCC(O)CC2)c1` [Compound 26, 1-(5-(2-(dimethylamino)ethoxy)pyridin-3-yl)piperidin-4-ol], the Measured activity scale entry at α4β2* nAChR [1] is given as “++ (moderately active ++, 150 nM < Ki < 1,000 nM)”. Further, the “interaction with α7* nAChR (in words)” value at α7* nAChR is “no activity”. `CN(C)CCOc1cncc(N2CCOCC2)c1` [Compound 25, N,N-dimethyl-2-{[5-(morpholin-4-yl)pyridin-3-yl]oxy}ethanamine]: at α4β2* nAChR [1], the Measured activity scale entry is “+ (inactive +, Ki > 1,000 nM)” and the “affinity for nAChR subtypes (in words)” value is listed as “complete loss of affinity”. For the molecule `CN(C)CCOc1cncc(N2CCNCC2)c1` [Compound 20a, N,N-dimethyl-2-{[5-(piperazin-1-yl)pyridin-3-yl]oxy}ethanamine], at α4β2* nAChR [1], the “fold lower α4β2* affinity in comparison with compound 17a” value is given as “about 770 fold” and the Measured activity scale result is recorded as “+++ (highly active +++, Ki < 150 nM)”. For the same molecule, in experiment [2], the Ki is above 1 µM. As to `CN(C)CCOc1cncc(N2CCCN(C)CC2)c1` [Compound 19a, N,N-dimethyl-2-((5-(4-methyl-1,4-diazepan-1-yl)pyridin-3-yl)oxy)ethanamine], on α4β2* nAChR [1], affinity was put at a Ki of 0.0069 µM and the Measured activity scale result is recorded as “++ (moderately active ++, 150 nM < Ki < 1,000 nM)”. For `CN(C)CCOc1cncc(N2CC3CNCC(C3)C2)c1` [Compound 17a, 2-((5-(3,7-diazabicyclo[3.3.1]nonan-3-yl)pyridin-3-yl)oxy)-N,N-dimethylethanamine], the Measured activity scale result on α4β2* nAChR [1] was “+++ (highly active +++, Ki < 150 nM)”. In experiment [2], the inhibition constant Ki is above 1 µM. Moreover, in the experiment on α4β2* nAChRs, the “functional activity for α4β2* nAChRs (in words)” value is “partial agonist activity”. Moreover, the “effect in the mouse tail suspension test (in words)” value in [5] is “efficacy in the mouse tail suspension test”.

The Ki is the dissociation constant of the complex between target and ligand, obtained from inhibition or displacement. As usually defined, the IC50 is the concentration at which inhibition is half-maximal.
